Values of other authors in patent US8252902B2, “Antibody targeting compounds” (The Scripps Research Institute, priority 2001, dated 2012).

Columns and labels:
[1] = test system: HIV primary isolates and laboratory-adapted strains
VEGFR-2 = VEGFR-2 (Homo sapiens, UniProt P35968)
[2] = test system: VEGF-mediated angiogenesis

Chain of VEGFR-2 (P35968 20-1356, species assumed): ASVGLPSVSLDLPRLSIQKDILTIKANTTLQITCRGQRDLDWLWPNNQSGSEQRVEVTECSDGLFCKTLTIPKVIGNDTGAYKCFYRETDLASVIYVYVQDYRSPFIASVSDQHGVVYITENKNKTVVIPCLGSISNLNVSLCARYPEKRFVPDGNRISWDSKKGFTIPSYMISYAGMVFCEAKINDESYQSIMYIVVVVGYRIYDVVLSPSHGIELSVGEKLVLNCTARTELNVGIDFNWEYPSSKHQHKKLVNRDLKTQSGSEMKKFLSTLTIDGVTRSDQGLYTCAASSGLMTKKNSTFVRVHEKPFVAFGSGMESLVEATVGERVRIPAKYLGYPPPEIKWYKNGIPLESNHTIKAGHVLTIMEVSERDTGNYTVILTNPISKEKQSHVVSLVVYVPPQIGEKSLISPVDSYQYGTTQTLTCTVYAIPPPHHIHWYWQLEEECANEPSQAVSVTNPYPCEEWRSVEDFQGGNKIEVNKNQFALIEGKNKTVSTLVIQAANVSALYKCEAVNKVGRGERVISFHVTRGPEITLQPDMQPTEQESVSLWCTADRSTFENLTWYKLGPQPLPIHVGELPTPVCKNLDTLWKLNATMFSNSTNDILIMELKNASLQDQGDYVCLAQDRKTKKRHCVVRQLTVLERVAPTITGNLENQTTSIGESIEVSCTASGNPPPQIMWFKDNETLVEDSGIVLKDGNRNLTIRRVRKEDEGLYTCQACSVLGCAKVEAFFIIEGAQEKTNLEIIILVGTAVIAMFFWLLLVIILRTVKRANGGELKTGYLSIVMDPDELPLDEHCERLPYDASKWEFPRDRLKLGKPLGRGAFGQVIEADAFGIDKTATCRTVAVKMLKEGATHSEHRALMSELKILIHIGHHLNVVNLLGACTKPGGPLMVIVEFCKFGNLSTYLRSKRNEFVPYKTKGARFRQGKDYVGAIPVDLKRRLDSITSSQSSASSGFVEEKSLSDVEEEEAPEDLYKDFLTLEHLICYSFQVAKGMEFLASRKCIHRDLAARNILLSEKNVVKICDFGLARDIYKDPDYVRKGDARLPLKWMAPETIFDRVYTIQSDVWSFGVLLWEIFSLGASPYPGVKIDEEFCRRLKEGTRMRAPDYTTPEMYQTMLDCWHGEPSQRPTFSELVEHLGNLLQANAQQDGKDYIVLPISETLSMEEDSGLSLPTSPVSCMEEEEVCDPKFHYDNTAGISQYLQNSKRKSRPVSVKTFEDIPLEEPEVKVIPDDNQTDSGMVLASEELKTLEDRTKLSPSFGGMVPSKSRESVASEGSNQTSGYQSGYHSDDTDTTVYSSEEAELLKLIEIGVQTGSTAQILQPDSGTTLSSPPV

Compound	anti-HIV activity [1]	interference with VEGF binding to VEGFR-2 (VEGFR-2)	inhibition of VEGF-mediated angiogenesis [2]
C=C(C)[C@@H]1CC[C@]2(C(=O)NCCCCCCCC(=O)N[C@@H](CC(C)C)[C@H](O)CC(=O)O)CC[C@]3(C)[C@H](CC[C@@H]4[C@@]5(C)CC[C@H](O)C(C)(C)[C@@H]5CC[C@]43C)[C@@H]12 [IC9564]	can inhibit both HIV primary isolates and laboratory-adapted strains		
ATWLPPR (homo sapiens) [ATWLPPR (SEQ ID NO: 2)]		effectively interfered	inhibited
